Tested on: dermal fibroblast
Assay: Influence of fatty acids on intracellular neutral lipid content of dermal fibroblast from diabetic patient, enzyme assay
Type: cell-based, human
Design: Intracellular TG-decreasing activity: scale not given here
Settings: for Intracellular TG-decreasing activity: based on part of the results in FIG. 4 and FIG. 5; for Activity to decrease intracellular TG: comparison of medium-chain fatty acids (FIG. 5); for Intracellular TG (neutral lipid) content: fatty acid added at 50 and 500 μM, cells collected 2 days later, versus no fatty acid (FIG. 4)
Description: With the consent of the diabetic patient in Example 3, part of dermal tissue was harvested and was then subjected to primary culture (culture medium: DMEM/10% FBS) by Explant method, followed by repeated subculture to give a cell line. The resulting dermal fibroblast was examined for the influence of various fatty acids on an intracellular neutral lipid content. Specifically, the dermal specimen harvested from the patient was subjected to an in vitro enzyme assay using various fatty acids to measure an intracellular neutral lipid content. The enzyme assay was performed using a triglyceride quantification kit (manufacturer: BioVision, Inc., product code: K622-100). […] To the patient's cells, the various fatty acids were added, and 2 days later, the cells were collected. In the figures, (-) is a specimen to which no fatty acid was added (cultured as a control in DMEM/10% FBS alone). C16:0 is palmitic acid, C18:1 is oleic acid, C18:2 is linoleic acid, C20:4 is arachidonic acid, C20:5 is eicosapentaenoic acid (EPA), C7:0 is heptanoic acid, C8:0 is caprylic acid, and C10:0 is capric acid.

Activity to decrease intracellular TG	Intracellular TG (neutral lipid) content	Structure (SMILES)	Intracellular TG-decreasing activity
great activity to decrease TG		CC(C)CCCCCCC(=O)O [8-methylnonanoic acid]	100
great activity to decrease TG	decreased	CCCCCCCCCC(=O)O [capric acid]	100
		CCCCCCCC(=O)O [caprylic acid]	5
	increased	CCCCCCC(=O)O [heptanoic acid, reference compound]	0

Source: patent US20140296338A1, “PROPHYLACTIC AND/OR THERAPEUTIC AGENT FOR CARDIOVASCULAR COMPLICATIONS OF DIABETES” (priority 2011, published 2014)
